The source of these data is patent US7919486B2, “Use of gallium(III) complexes for the treatment of melanomas” (Niiki Pharma Inc., priority 2007, dated 2011).

The subject of one data set is SK-MEL-5. The data set is described as follows: cytotoxic activity in cell culture on melanoma cell line SK-MEL-5. It is filed as cell-based. The conditions noted are these: SK-MEL-5 melanoma cell line obtained from human tumors. As for the experimental part: (§1) The compound of tris(hydroxyquinolinolato)gallium(III) was analyzed with respect to its cytotoxic activity in the cell culture on the melanoma cell lines obtained from human tumors.

The test system of the next data set is SK-MEL-28. The data set is described as follows: cytotoxic activity in cell culture on melanoma cell line SK-MEL-28. It is filed as cell-based. As to conditions: SK-MEL-28 melanoma cell line obtained from human tumors. As to the method:
as §1

On to `c1cnc2c([O][Ga]([O]c3cccc4cccnc34)[O]c3cccc4cccnc34)cccc2c1` [tris(hydroxyquinolinolato)gallium(III)], for which the figures for the IC50 in the data set with SK-MEL-5 and in the data set with SK-MEL-28 were 0.76 µM and 35 µM, respectively.

In general, IC50 refers to the concentration that gives 50% inhibition. The low end stands for higher potency, the high end for lower potency.
